According to the NIST ThermoML archive (doi:10.1016/j.jct.2011.10.001):

Assay: molar heat capacity at constant pressure
Conditions: 101.33 kPa, Crystal, Vacuum adiabatic calorimetry

CCCC(=O)OC [methyl butanoate]
Conditions | molar heat capacity at constant pressure [J/K/mol]
5 K | 0.356
7.61 K | 1.24
7.88 K | 1.381
8.13 K | 1.514
8.39 K | 1.657
8.65 K | 1.805
8.9 K | 2.108
9.16 K | 2.207
9.41 K | 2.466
9.66 K | 2.549
9.91 K | 2.719
10 K | 2.828
10.22 K | 2.894
10.6 K | 3.3
10.98 K | 3.648
11.35 K | 4.064
11.73 K | 4.38
12.13 K | 4.735
12.5 K | 5.111
12.86 K | 5.563
13.23 K | 5.907
13.6 K | 6.278
13.96 K | 6.646
14.33 K | 7.063
14.68 K | 7.551
15 K | 7.893
15.04 K | 7.92
15.4 K | 8.318
15.76 K | 8.825
16.11 K | 9.332
16.47 K | 9.652
16.82 K | 10.21
17.17 K | 10.66
17.53 K | 11.07
17.88 K | 11.41
18.23 K | 11.84
18.58 K | 12.53
18.93 K | 12.9
19.28 K | 13.53
19.63 K | 13.98
19.98 K | 14.42
20 K | 14.36
20.62 K | 15.2
21.39 K | 16.16
22.15 K | 17.23
22.91 K | 18.29
23.67 K | 19.35
24.44 K | 20.59
25 K | 21.25
25.2 K | 21.61
25.97 K | 22.55
26.73 K | 23.64
27.49 K | 24.49
28.25 K | 25.82
29.01 K | 26.93
29.77 K | 27.91
30 K | 28.14
30.53 K | 29.04
31.29 K | 29.6
32.82 K | 31.82
33.59 K | 32.79
34.35 K | 33.88
35 K | 34.59
35.11 K | 34.58
35.86 K | 35.63
36.61 K | 36.63
37.37 K | 37.49
38.12 K | 38.33
38.88 K | 38.88
39.63 K | 39.87
40 K | 40.28
40.39 K | 40.69
41.14 K | 41.43
41.9 K | 42.12
42.65 K | 43.21
43.4 K | 44
44.16 K | 44.51
44.91 K | 45.66
45 K | 45.57
45.66 K | 46.29
46.41 K | 47.13
47.17 K | 47.63
47.92 K | 48.66
48.66 K | 49.52
49.41 K | 50.2
50 K | 50.77
50.16 K | 50.98
50.91 K | 51.69
51.66 K | 52.27
52.4 K | 53.16
53.15 K | 54.06
53.89 K | 54.63
54.64 K | 55.7
55 K | 55.94
55.38 K | 56.48
56.12 K | 57.16
56.87 K | 57.9
59.09 K | 60.08
59.84 K | 60.45
60 K | 60.87
60.58 K | 61.42
61.32 K | 62.07
62.06 K | 62.68
62.8 K | 63.44
63.54 K | 64.04
64.28 K | 64.72
65 K | 65.14
65.03 K | 65.05
65.77 K | 65.7
66.5 K | 66.39
67.24 K | 66.79
67.98 K | 67.34
68.72 K | 67.73
69.46 K | 68.24
70 K | 68.48
70.2 K | 68.47
71.09 K | 68.75
72.14 K | 69.62
73.19 K | 70.47
74.24 K | 70.88
75 K | 71.36
75.29 K | 71.51
76.34 K | 72.3
77.39 K | 72.87
78.44 K | 73.35
78.68 K | 72.62
79.48 K | 74.12
79.71 K | 73.82
80 K | 74.1
80.53 K | 74.83
80.74 K | 74.41
81.58 K | 75.43
81.76 K | 74.8
82.62 K | 75.67
82.79 K | 75.48
83.67 K | 76.36
83.81 K | 75.48
84.83 K | 76.86
85 K | 76.9
85.85 K | 77.51
86.87 K | 77.78
87.89 K | 78.68
88.91 K | 79.57
89.93 K | 79.99
90 K | 79.81
90.96 K | 80.42
91.97 K | 80.85
92.99 K | 81.43
94.01 K | 82.02
95 K | 82.75
95.03 K | 82.39
96.04 K | 83.43
97.06 K | 84.19
98.07 K | 84.16
99.09 K | 84.89
100 K | 85.29
100.1 K | 85.45
101.62 K | 86.18
103.64 K | 87.3
105.66 K | 88.28
107.68 K | 89.36
109.7 K | 90.17
110 K | 90.46
111.72 K | 91.08
113.73 K | 92.15
115.74 K | 93.34
117.75 K | 94.24
119.76 K | 95.16
120 K | 95.31
121.76 K | 96.24
123.77 K | 97.13
125.78 K | 98.02
127.78 K | 98.84
129.79 K | 99.75
